As usually defined, the EC50 is the concentration that produces a half-maximal response. What is called solubility is how much of the substance goes into solution per volume.

1 compound from patent US10357477B2, “Anticancer compounds” (REGENTS OF THE UNIVERSITY OF MINNESOTA, priority 2016, dated 2019) can be followed below.

Structures are written as SMILES. ≈ marks a conversion by molar mass, not a printed value.

One data set concerns MIA PaCa-2 cells. In words: Cell viability assay (MTT) in MIA PaCa-2 cells. The format is cell-based. The note with it: Homo sapiens, antiproliferative activity, 72 h. The method in brief: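 MIA PaCa-2 cells exposed 72 h at 37° C to 2-fold serial compound dilutions from 100 μM final, 0.5% DMSO, in triplicate. Viability by MTT (3 h), formazan read at 570 nm minus 650 nm; EC50 from curve fit.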

Data set [1] has as its system MCF10A cells (normal human mammary cells). As to the kind of experiment: Cell viability assay (MTT) in MCF10A cells. Type of data set: cell-based. Conditions: MCF-10A, 72 h. The procedure: MCF10A cells are maintained in minimum essential medium (MEM) (Invitrogen 11095) supplemented with 10% FBS (Invitrogen 16000), 1% 10× non-essential amino acids (NEAA) (Invitrogen 11140), 1% Penicillin/Streptomycin (Invitrogen 15140), 1% GlutaMAX (Invitrogen 35050-061), 20 ng/mL EGF, […] hydrocortisone, 100 ng/mL cholera toxin, 10 μg/mL insulin.
Cells were plated in 96-well plates at 25×10^4 cells/ml. After 24 hours, compounds were added at 9, 3× dilutions in triplicate from 100 uM final concentration in the appropriate growth media. Plates were incubated for 72 hours at 37° C. in a 5% CO2/95% air humidified atmosphere after which time the media was removed and MTT was added in RPMI phenol red free media. The MTT was removed after 3 hours and formazan crystals were solubilized with 200 μL of isopropanol. Plates were read on a Molecular Devices SpectraMax i3 spectrophotometer at 570 nm for formazan and 690 nm for background subtraction. EC50 values were calculated by fitting the data in GraphPad Prism software.

Data set [2] in a line: Plasma stability assay, human plasma. Type of data set: in vitro ADME. Conditions: 37° C.
The nature of data set [3]: Microsomal stability assay, human liver microsomes. The note with it: pH 7.4; human liver microsomes 0.5 mg/mL, 1 mM NADPH, 1 μM compound; read-out: Microsomal Stability t1/2 Human. The format is in vitro ADME. (Microsomes from liver hold many membrane-bound enzymes, among them those of drug oxidation.)
Data set [4] can be described thus: Thermodynamic solubility assay. The format is physicochemical. Conditions: aqueous buffer, thermodynamic from solid, DPBS pH=7.4, 48 h, ambient temperature. As for the experimental part:
Briefly, a saturated solution was made by adding DPBS to the solid compound. The mixture was shaken at 200 rpm for 48 h in a MaxQ 6000 orbital shaker at ambient temperature to allow equilibrium between the solid and dissolved compound. The suspension was then filtered through a 0.45 μm PVDF syringe filter and the filtrate was collected for analysis using UV spectrometry (SpectraMax M5e, Molecular Devices) at λ=240 nm.

In the case of `CNC(=O)c1cccc(Cn2nc(C)c(NC(=O)c3ccc(COc4ccc(C(F)(F)F)cc4)cc3)c2C)c1` [Compound D9c, 3-((3,5-Dimethyl-4-(4-((4-(trifluoromethyl)phenoxy)-methyl)benzamido)-1H-pyrazol-1-yl)methyl)-N-methylbenzamide], the EC50 in the data set with MIA PaCa-2 cells was found to be 0.8 µM; in data set [1] it was 6.7 µM. For the same compound, the “Plasma Stability (% remaining, 6 h/24 h) Human” value amounted to 99% in data set [2] (6 h) and 100% in data set [2] (24 h). In data set [3], the half-life at 1 μM was determined as 34 min. In addition, the concentration in solution in data set [4] (solubility at 48 h) was 67.3 ± 5.2 µM (≈ 36.1 µg/mL).
